Measurements as given in patent US11155557B2, “Pyrazolopyrimidine compounds and methods of use thereof” (Genentech, Inc., priority 2016, dated 2021).
Where two headings read alike, the source gives them in different places.

Legend:
[1] = system: JAK1-dependent STAT6 phosphorylation in BEAS-2B human bronchial epithelial cells; experiment: JAK1 pathway assay: IL-13 stimulated STAT6 phosphorylation in BEAS-2B cells; assay type: cell-based; settings: BEAS-2B cells, IL-13 stimulation, read-out: IL-13 p-STAT6 BEAS-2B IC50
Method in brief: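 BEAS-2B bronchial epithelial cells plated one day before, run in complete growth medium. Phospho-STAT6 in lysates measured by MesoScale Discovery; EC50 reported.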

[2] = molecular target: isolated recombinant JAK2 kinase domain (Homo sapiens (Human), UniProt O60674); experiment: JAK2 enzyme assay (Caliper LabChip, Ki); settings: read-out: JAK2 Ki
[3] = molecular target: isolated recombinant JAK1 kinase domain (Homo sapiens (Human), UniProt P23458); experiment: JAK1 enzyme assay (Caliper LabChip, Ki); assay type: biochemical
Description: The activity of the isolated recombinant JAK1 and JAK2 kinase domain was measured by monitoring phosphorylation of a peptide derived from JAK3 ([…] fluorescently labeled on the N-terminus with 5-carboxyfluorescein) using the Caliper LabChip R technology (Caliper Life Sciences, Hopkinton, Mass.).

Sequence of isolated recombinant JAK2 kinase domain (O60674 849-1124): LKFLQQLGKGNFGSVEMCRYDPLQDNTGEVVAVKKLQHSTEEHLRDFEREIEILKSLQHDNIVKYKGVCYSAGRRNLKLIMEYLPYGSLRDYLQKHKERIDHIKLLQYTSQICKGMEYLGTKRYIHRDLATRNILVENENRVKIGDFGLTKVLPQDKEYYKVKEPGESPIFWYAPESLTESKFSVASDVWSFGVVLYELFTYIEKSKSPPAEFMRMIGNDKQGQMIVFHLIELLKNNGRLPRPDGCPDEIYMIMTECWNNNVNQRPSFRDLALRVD
Sequence of isolated recombinant JAK1 kinase domain (P23458 875-1153): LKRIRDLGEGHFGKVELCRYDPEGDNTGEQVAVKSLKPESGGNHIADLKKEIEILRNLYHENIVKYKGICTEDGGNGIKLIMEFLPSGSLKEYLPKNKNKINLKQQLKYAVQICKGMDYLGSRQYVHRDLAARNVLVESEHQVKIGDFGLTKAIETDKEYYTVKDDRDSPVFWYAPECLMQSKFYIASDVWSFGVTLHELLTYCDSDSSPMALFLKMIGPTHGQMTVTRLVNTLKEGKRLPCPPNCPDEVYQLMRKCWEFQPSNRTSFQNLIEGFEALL

Compound	Ki [2] [nM]	Ki [3] [nM]	IC50 ([1]; Homo sapiens, BEAS-2B) [nM]	IC50 [1] [nM]
O=C(Nc1cn(CC(=O)N2CCC(CN3CCOCC3)CC2)nc1-c1cc2sccc2cc1OC(F)F)c1cnn2cccnc12 [Example 65, N-[3-[5-(difluoromethoxy)benzothiophen-6-yl]-1-[2-[4-(morpholinomethyl)-1-piperidyl]-2-oxo-ethyl]pyrazol-4-yl]pyrazolo[1,5-a]pyrimidine-3-carboxamide]	0.6	0.41	13	
O=C(Nc1cn(CC(=O)N2CCNCC2)nc1-c1cc2ccccc2cc1OC(F)F)c1cnn2cccnc12 [Example 71, N-[3-[3-(difluoromethoxy)-2-naphthyl]-1-(2-oxo-2-piperazin-1-yl-ethyl)pyrazol-4-yl]pyrazolo[1,5-a]pyrimidine-3-carboxamide]	1.6	0.86	78	
C[C@@H]1CNc2cc(OC(F)F)c(-c3nn(CC(=O)N4CCC(CN5CCOCC5)CC4)cc3NC(=O)c3cnn4cccnc34)cc2S1 [Example 46, N-[1-[2-[4-(morpholinomethyl)-1-piperidyl]-2-oxo-ethyl]-3-[(2R)-6-(difluoromethoxy)-2-methyl-3,4-dihydro-2H-1,4-benzothiazin-7-yl]pyrazol-4-yl]pyrazolo[1,5-a]pyrimidine-3-carboxamide]	0.31	0.25	31	
O=C(Nc1cn(CC(=O)N2CC(F)(F)C2)nc1-c1cc2c(cc1OC(F)F)NCCO2)c1cnn2cccnc12 [Example 138, N-[1-[2-(3,3-difluoroazetidin-1-yl)-2-oxo-ethyl]-3-[6-(difluoromethoxy)-3,4-dihydro-2H-1,4-benzoxazin-7-yl]pyrazol-4-yl]pyrazolo[1,5-a]pyrimidine-3-carboxamide]	0.32	0.26	36	
O=C(Nc1cn(CC(=O)N2CC=CCC2)nc1-c1cc2c(cc1OC(F)F)NCCS2)c1cnn2cccnc12 [Example 50, N-[3-[6-(difluoromethoxy)-3,4-dihydro-2H-1,4-benzothiazin-7-yl]-1-[2-(3,6-dihydro-2H-pyridin-1-yl)-2-oxo-ethyl]pyrazol-4-yl]pyrazolo[1,5-a]pyrimidine-3-carboxamide]	0.1	0.11	10	
N#CC1(CNC2CCN(C(=O)Cn3cc(NC(=O)c4cnn5cccnc45)c(-c4cc5sc(C(N)=O)cc5cc4OC(F)F)n3)CC2)CC1 [Example 64, N-[3-[2-carbamoyl-5-(difluoromethoxy)benzothiophen-6-yl]-1-[2-[4-[(1-cyanocyclopropyl)methylamino]-1-piperidyl]-2-oxo-ethyl]pyrazol-4-yl]pyrazolo[1,5-a]pyrimidine-3-carboxamide]	0.35	0.29	> 1000	
CC1CNc2cc(OC(F)F)c(-c3nn(CC(=O)N4CCCCC4)cc3NC(=O)c3cnn4cccnc34)cc2S1 (single isomer, unassigned) [Example 101, N-[3-[6-(difluoromethoxy)-2-methyl-3,4-dihydro-2H-1,4-benzothiazin-7-yl]-1-[2-oxo-2-(1-piperidyl)ethyl]pyrazol-4-yl]pyrazolo[1,5-a]pyrimidine-3-carboxamide]	0.16	0.23	13	
O=C(Nc1cn(CC(=O)N2CCC(N3CCOCC3)CC2)nc1-c1cc2c(cc1OC(F)F)NCCO2)c1cnn2cccnc12 [Example 47, N-[3-[6-(difluoromethoxy)-3,4-dihydro-2H-1,4-benzoxazin-7-yl]-1-[2-(4-morpholino-1-piperidyl)-2-oxo-ethyl]pyrazol-4-yl]pyrazolo[1,5-a]pyrimidine-3-carboxamide]	0.45	0.31	106	
O=C(Nc1cn(CC(=O)N2CCC(N3CCOCC3)CC2)nc1-c1cc2c(cc1OC(F)F)NCCS2)c1cnn2cccnc12 [Example 58, N-[3-[6-(difluoromethoxy)-3,4-dihydro-2H-1,4-benzothiazin-7-yl]-1-[2-(4-morpholino-1-piperidyl)-2-oxo-ethyl]pyrazol-4-yl]pyrazolo[1,5-a]pyrimidine-3-carboxamide]	0.22	0.19	54	
NC(=O)c1cc2cc(OC(F)F)c(-c3nn(CC(=O)N4CCC(CN5CCOCC5)CC4)cc3NC(=O)c3cnn4cccnc34)cc2s1 [Example 61, N-[3-[2-carbamoyl-5-(difluoromethoxy)benzothiophen-6-yl]-1-[2-[4-(morpholinomethyl)-1-piperidyl]-2-oxo-ethyl]pyrazol-4-yl]pyrazolo[1,5-a]pyrimidine-3-carboxamide]	0.78	0.64	> 333	
N#Cc1cc2cc(OC(F)F)c(-c3nn(CC(=O)N4CCC(CN5CCOCC5)CC4)cc3NC(=O)c3cnn4cccnc34)cc2s1 [Example 60, N-[3-[2-cyano-5-(difluoromethoxy)benzothiophen-6-yl]-1-[2-[4-(morpholinomethyl)-1-piperidyl]-2-oxo-ethyl]pyrazol-4-yl]pyrazolo[1,5-a]pyrimidine-3-carboxamide]	0.35	0.36	12	
O=C(Nc1cn(CC2(O)CCOCC2)nc1-c1cc2c(cc1OC(F)F)NCCO2)c1cnn2cccnc12 [Example 134, N-[3-[6-(difluoromethoxy)-3,4-dihydro-2H-1,4-benzoxazin-7-yl]-1-[(4-hydroxytetrahydropyran-4-yl)methyl]pyrazol-4-yl]pyrazolo[1,5-a]pyrimidine-3-carboxamide]	0.47	0.4	23	

More lines, main results first:

Ki [2] [nM]	Ki [3] [nM]	Compound	IC50 ([1]; Homo sapiens, BEAS-2B) [nM]	IC50 [1] [nM]
0.21	0.33	O=C(Nc1cn(C2COC2)nc1-c1cc2sncc2cc1OC(F)F)c1cnn2cccnc12 [Example 139, N-[3-[5-(difluoromethoxy)-1,2-benzothiazol-6-yl]-1-(oxetan-3-yl)pyrazol-4-yl]pyrazolo[1,5-a]pyrimidine-3-carboxamide]	10	
0.12	0.12	CN(C)C(=O)Cn1cc(NC(=O)c2cnn3cccnc23)c(-c2cc3c(cc2OC(F)F)NCCS3)n1 [Example 99, N-[3-[6-(difluoromethoxy)-3,4-dihydro-2H-1,4-benzothiazin-7-yl]-1-[2-(dimethylamino)-2-oxo-ethyl]pyrazol-4-yl]pyrazolo[1,5-a]pyrimidine-3-carboxamide]	24	
0.05	0.07	CC1Sc2cc(-c3n[nH]cc3NC(=O)c3cnn4cccnc34)c(OC(F)F)cc2NC1=O (single isomer, unassigned) [Example 96, N-[3-[6-(difluoromethoxy)-2-methyl-3-oxo-4H-1,4-benzothiazin-7-yl]-1H-pyrazol-4-yl]pyrazolo[1,5-a]pyrimidine-3-carboxamide]		70
0.03	0.06	CC1Sc2cc(-c3n[nH]cc3NC(=O)c3cnn4cccnc34)c(OC(F)F)cc2NC1=O (single isomer, unassigned) [Example 95, N-[3-[6-(difluoromethoxy)-2-methyl-3-oxo-4H-1,4-benzothiazin-7-yl]-1H-pyrazol-4-yl]pyrazolo[1,5-a]pyrimidine-3-carboxamide]	60	
0.11	0.12	CNCCn1cc(NC(=O)c2cnn3cccnc23)c(-c2cc3c(cc2OC(F)F)NCCS3)n1 [Example 81, N-[3-[6-(difluoromethoxy)-3,4-dihydro-2H-1,4-benzothiazin-7-yl]-1-[2-(methylamino)ethyl]pyrazol-4-yl]pyrazolo[1,5-a]pyrimidine-3-carboxamide]	7	
0.08	0.1	O=C(Nc1c[nH]nc1-c1cc2c(cc1OC(F)F)NCCO2)c1cnn2cccnc12 [Example 11]	4	
0.25	0.44	C[C@H]1COc2cc(-c3n[nH]cc3NC(=O)c3cnn4cccnc34)c(OC(F)F)cc2N1 [Example 42, N-[3-[(3S)-6-(difluoromethoxy)-3-methyl-3,4-dihydro-2H-1,4-benzoxazin-7-yl]-1H-pyrazol-4-yl]pyrazolo[1,5-a]pyrimidine-3-carboxamide]	34	
0.21	0.26	Cn1nncc1Cn1cc(NC(=O)c2cnn3cccnc23)c(-c2cc3c(cc2OC(F)F)NCCO3)n1 [Example 133, N-[3-[6-(difluoromethoxy)-3,4-dihydro-2H-1,4-benzoxazin-7-yl]-1-[(3-methyltriazol-4-yl)methyl]pyrazol-4-yl]pyrazolo[1,5-a]pyrimidine-3-carboxamide]	17	
0.42	0.6	O=C(Nc1cn(C2CCOC2=O)nc1-c1cc2c(cc1OC(F)F)NCCO2)c1cnn2cccnc12 (single isomer, unassigned) [Example 145, N-[3-[6-(difluoromethoxy)-3,4-dihydro-2H-1,4-benzoxazin-7-yl]-1-(2-oxotetrahydrofuran-3-yl)pyrazol-4-yl]pyrazolo[1,5-a]pyrimidine-3-carboxamide]		36
0.06	0.1	O=C(Nc1c[nH]nc1-c1cc2sncc2cc1OC(F)F)c1cnn2cccnc12 [Example 152, N-(3-(5-(difluoromethoxy)benzo[d]isothiazol-6-yl)-1H-pyrazol-4-yl)pyrazolo[1,5-a]pyrimidine-3-carboxamide]	4	
0.05	0.06	CC1Sc2cc(-c3n[nH]cc3NC(=O)c3cnn4cccnc34)c(OC(F)F)cc2NC1=O (stereo not drawn) [Example 39, N-[3-[6-(difluoromethoxy)-2-methyl-3-oxo-4H-1,4-benzothiazin-7-yl]-1H-pyrazol-4-yl]pyrazolo[1,5-a]pyrimidine-3-carboxamide]	71	
